According to patent US7521254B2, “Quantitative measurements of concentration and solubility using Raman spectroscopy” (Transform Pharmaceuticals, Inc., priority 2004, dated 2009):

Experiment: Raman spectroscopic measurement of solute concentration in multi-component solvent mixtures
Format: physicochemical
Details: prepared at 10 mg/mL
Experimental: FIGS. 1B and 1C depict calibration spectra for a two-component system (component A and component B) in which the solute from FIG. 1A is homogeneously distributed. FIG. 1B represents a calibration spectrum for single-component A while FIG. 1C represents a calibration spectrum for single-component B. The concentration of both single-component systems is 15 mg/mL. FIG. 1D depicts a Raman spectrum of the two-component system (A and B) with an unknown solute concentration. The ratio of A:B is 1:1 in the unknown sample. FIG. 1E is a representation of the Raman intensities at a particular frequency (v1) in both calibration spectra. A dotted line has been drawn between the calibration intensities and illustrates the expected Raman intensities at frequency v1 due to the solute molecule in mixtures of both components. […] In view of FIG. 1E, the ratio of components in the unknown sample can be used to determine the concentration of solute. […] A solute concentration above 15 mg/mL results in a Raman intensity greater than (IA+IB)/2 while a solute concentration below 15 mg/mL results in a Raman intensity less than (IA+IB)/2. Due to a directly proportional and linear relationship between Raman scattering intensity and concentration, values both above and below 15 mg/mL are easily calculated based on the measured Raman intensity of the unknown (multi-component) sample.
In another embodiment, automated software can be programmed to analyze the data. First, the software identifies the spectral peaks and intensities that are unique to the solute molecule by direct comparison with a solvent only (signature) spectrum. The various single-component (calibration) Raman spectra are then accessed and a calibration matrix is configured and saved from these single-component data. […] The concentration of solute in the multi-component system is calculated using a weighted average determination. For instance, the concentration (C) of a solute in a multi-component system can be calculated by using equation (1), C=a1c1+a2c2+a3c3+ . . . […]

| mean value for the concentration (1:1:1 ternary mixtures by volume (Table II), RSD 6.7 percent) | mean value for the concentration (1:3 binary mixtures of excipients by volume (Table I), two trials, RSD 9.6 percent) | mean value for the concentration (1:1 binary mixtures by volume (Table IV), RSD 9.7 percent) | SMILES |
| --- | --- | --- | --- |
| 9.48 mg/mL | 10.18 mg/mL | – | CC(=O)Nc1ccc(O)cc1 [Acetaminophen] |
| – | – | 10.19 mg/mL | CC(=O)Oc1ccccc1C(=O)O [Acetylsalicylic acid] |
